ChEMBL document CHEMBL1201862, “PubChem BioAssay data set” (2004)
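How tested: cells in 96-well plates exposed to compound for 48 hours at five concentrations. GI50 is the concentration that inhibits growth by half.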 Calls of active or inactive are those of the source. Rule as the data show it: active = GI50 up to about 1.1 µM and inactive = higher.

Key:
Experiment in all cases: NCI anticancer screen, dose series, 48 h
A498 = system: A498
TK-10 = system: TK-10
SNB-19 = system: SNB-19
NCI-H23 = system: NCI-H23
SK-MEL-5 = system: SK-MEL-5
HOP-62 = system: HOP-62
COLO 205 = system: COLO 205
KM12 = system: KM12
SW-620 = system: SW-620
RPMI-8226 = system: RPMI-8226
HT-29 = system: HT-29
HL-60 = system: HL-60
CAKI-1 = system: CAKI-1
MCF7 = system: MCF7
OVCAR-8 = system: OVCAR-8
CCRF-CEM = system: CCRF-CEM
LOX IMVI = system: LOX IMVI
M14 = system: M14
UACC-62 = system: UACC-62
NCI-H522 = system: NCI-H522

| Structure (SMILES) | GI50 (A498) | GI50 (TK-10) | GI50 (SNB-19) | GI50 (NCI-H23) | GI50 (SK-MEL-5) | GI50 (HOP-62) | GI50 (COLO 205) | GI50 (KM12) | GI50 (SW-620) | GI50 (RPMI-8226) | GI50 (HT-29) | GI50 (HL-60) | GI50 (CAKI-1) | GI50 (MCF7) | GI50 (OVCAR-8) | GI50 (CCRF-CEM) | GI50 (LOX IMVI) | GI50 (M14) | GI50 (UACC-62) | GI50 (NCI-H522) |
| --- | --- | --- | --- | --- | --- | --- | --- | --- | --- | --- | --- | --- | --- | --- | --- | --- | --- | --- | --- | --- |
| C=Cc1cnc([N+](=O)[O-])n1C | 34.3 µM (inactive) | 36.1 µM (inactive) | > 100 µM (inactive) | 98.9 µM (inactive) | 83.2 µM (inactive) | 92 µM (inactive) | 46.5 µM (inactive) | 36.2 µM (inactive) | 62.1 µM (inactive) | 40.1 µM (inactive) | > 100 µM (inactive) | 48.6 µM (inactive) | 42.5 µM (inactive) | 59 µM (inactive) | > 100 µM (inactive) | 46.1 µM (inactive) | 87.5 µM (inactive) | 65.5 µM (inactive) |  |  |
| S=P1(N2CCCCC2)Oc2ccc3ccccc3c2-c2c(ccc3ccccc23)O1 | > 35.2 µM (inactive) |  | > 100 µM (inactive) | > 81.1 µM (inactive) | > 71.4 µM (inactive) | > 100 µM (inactive) | > 100 µM (inactive) | > 100 µM (inactive) | > 100 µM (inactive) | > 91.2 µM (inactive) | > 76.2 µM (inactive) | > 100 µM (inactive) | > 44.6 µM (inactive) | > 85.3 µM (inactive) | 64.4 µM (inactive) | > 31.6 µM (inactive) | 60.4 µM (inactive) |  | 94.8 µM (inactive) | 37.8 µM (inactive) |
| O=C1/C(=C/c2ccc(Oc3ccccc3)cc2)N=C(c2ccccc2)N1c1ccc(S(=O)(=O)Nc2nccs2)cc1 | 18.1 µM (inactive) | 26.8 µM (inactive) | 35.3 µM (inactive) | 32.7 µM (inactive) | 17.5 µM (inactive) | 14.9 µM (inactive) | 8.3 µM (inactive) | 5.15 µM (inactive) | 13.9 µM (inactive) | 6.34 µM (inactive) | 9.68 µM (inactive) | 6.73 µM (inactive) | 21.7 µM (inactive) | 14.3 µM (inactive) |  | 26.2 µM (inactive) | 21.5 µM (inactive) | 15.3 µM (inactive) | 19.5 µM (inactive) |  |
| COc1ccc(OCC(C)(C)O)cc1 | > 100 µM (inactive) |  | > 100 µM (inactive) | > 100 µM (inactive) | > 100 µM (inactive) | > 100 µM (inactive) | > 100 µM (inactive) | > 100 µM (inactive) | > 100 µM (inactive) | > 100 µM (inactive) | > 100 µM (inactive) | > 100 µM (inactive) | > 100 µM (inactive) | > 45.3 µM (inactive) | > 100 µM (inactive) | > 100 µM (inactive) | > 100 µM (inactive) |  | > 100 µM (inactive) |  |
| C/C(NC(=O)c1ccccc1)=C(/C(=O)c1ccccc1)[C@@H]1OC(C)(C)O[C@@H]1[C@H]1COC(C)(C)O1 | 86.1 µM (inactive) | 77.6 µM (inactive) | 46.2 µM (inactive) | 22.9 µM (inactive) | 16.3 µM (inactive) | 33.1 µM (inactive) | 22.3 µM (inactive) | 28.6 µM (inactive) | 20.3 µM (inactive) | 14.9 µM (inactive) | 27 µM (inactive) | 16 µM (inactive) | 29.3 µM (inactive) | 40.8 µM (inactive) | 29.2 µM (inactive) |  | 19.9 µM (inactive) | 30.8 µM (inactive) | 39.4 µM (inactive) | 17.6 µM (inactive) |
| O=C(N/N=C1\C(=O)Nc2ccc(Br)cc21)/C(O)=C/C(=O)c1ccc(Cl)cc1 | 26.8 µM (inactive) | 50.4 µM (inactive) | 50.4 µM (inactive) | 71.9 µM (inactive) | 57.5 µM (inactive) | 54.6 µM (inactive) | 86.5 µM (inactive) | > 100 µM (inactive) | 40.8 µM (inactive) | 19.4 µM (inactive) | > 100 µM (inactive) |  | > 100 µM (inactive) | 44.4 µM (inactive) | 89.3 µM (inactive) |  | 34 µM (inactive) | > 100 µM (inactive) | 44.3 µM (inactive) | 23.1 µM (inactive) |
| Cc1nc2ccc(S(=O)(=O)Nc3nccs3)cc2c(=O)n1NS(=O)(=O)c1nccs1 | > 100 µM (inactive) | > 100 µM (inactive) | > 100 µM (inactive) | > 100 µM (inactive) | 88.7 µM (inactive) | > 100 µM (inactive) | > 100 µM (inactive) | 64.9 µM (inactive) | 78.3 µM (inactive) | > 100 µM (inactive) | 41.5 µM (inactive) | 79.1 µM (inactive) | > 100 µM (inactive) | 37.4 µM (inactive) | > 100 µM (inactive) | 86.7 µM (inactive) |  | > 100 µM (inactive) | 72.9 µM (inactive) | 60.8 µM (inactive) |
| CC(C)Oc1cccc(N2C(n3ccnc3)=Nc3ccncc3S2(=O)=O)c1 | 17.8 µM (inactive) | 12.1 µM (inactive) | 20.5 µM (inactive) | 11.5 µM (inactive) | 13.2 µM (inactive) | 18.3 µM (inactive) | 10.2 µM (inactive) | 23.2 µM (inactive) | 12.6 µM (inactive) | 3 µM (inactive) | 15.9 µM (inactive) |  | 13.7 µM (inactive) | 10.1 µM (inactive) | 14.5 µM (inactive) |  | 16.2 µM (inactive) | 13.6 µM (inactive) | 15.7 µM (inactive) | 9.44 µM (inactive) |
| CN(C)CC1CCCC1=O (stereo not given) | 10.5 µM (inactive) | 2.96 µM (inactive) | 31 µM (inactive) | 4.48 µM (inactive) | 2.86 µM (inactive) | 17.9 µM (inactive) | 0.56 µM (active) | 1.66 µM (inactive) | 0.2 µM (active) | 0.0502 µM (active) | 0.682 µM (active) | 0.084 µM (active) | 0.139 µM (active) | 0.408 µM (active) | 3.62 µM (inactive) | 0.138 µM (active) | 1.57 µM (inactive) | 1.16 µM (inactive) | 4.37 µM (inactive) |  |
| CCOC(=O)c1cn2c(n1)sc1cc([N+](=O)[O-])ccc12 | > 100 µM (inactive) | > 100 µM (inactive) | 78.2 µM (inactive) | > 100 µM (inactive) | > 100 µM (inactive) | 37 µM (inactive) | > 100 µM (inactive) | > 100 µM (inactive) | > 100 µM (inactive) | > 100 µM (inactive) | 86.1 µM (inactive) |  | > 100 µM (inactive) | > 100 µM (inactive) | > 100 µM (inactive) | > 100 µM (inactive) | > 100 µM (inactive) | > 100 µM (inactive) | > 100 µM (inactive) | > 100 µM (inactive) |
| C(=C\Nc1ccc(Oc2ccccc2)cc1)/C=N/c1ccc(Oc2ccccc2)cc1 | 16.2 µM (inactive) | 18.7 µM (inactive) | 17.3 µM (inactive) | 22.2 µM (inactive) |  | 20.7 µM (inactive) | 20 µM (inactive) | 16.4 µM (inactive) | 19 µM (inactive) | 21.8 µM (inactive) | 15.9 µM (inactive) | 23.7 µM (inactive) | 18.7 µM (inactive) | 16.9 µM (inactive) | 20.2 µM (inactive) | 15.3 µM (inactive) | 15 µM (inactive) |  |  | 20 µM (inactive) |
| CCOC(=O)C(NC(=O)N(C1=NCC(C)S1)C1CCCCC1)(OC)C(F)(F)F (stereo not given) | 16.4 µM (inactive) | 57.5 µM (inactive) | 49.3 µM (inactive) | 43.3 µM (inactive) | 23.8 µM (inactive) | 15.8 µM (inactive) | 23.2 µM (inactive) | 33 µM (inactive) | 35.2 µM (inactive) |  | 20.7 µM (inactive) | 30.2 µM (inactive) | 34.6 µM (inactive) | 23.4 µM (inactive) | 70.5 µM (inactive) | 25.2 µM (inactive) | 19.7 µM (inactive) | 51.2 µM (inactive) | 32.8 µM (inactive) | 27.7 µM (inactive) |
| CS(=O)(=O)c1n[nH]c2nc(O)nc(O)c12 | > 10 µM (inactive) | > 10 µM (inactive) | > 10 µM (inactive) | > 10 µM (inactive) | > 10 µM (inactive) | > 10 µM (inactive) | > 10 µM (inactive) | > 10 µM (inactive) | > 10 µM (inactive) |  | > 10 µM (inactive) | > 10 µM (inactive) | > 10 µM (inactive) | > 10 µM (inactive) | > 10 µM (inactive) | > 10 µM (inactive) | > 10 µM (inactive) | > 10 µM (inactive) | > 10 µM (inactive) | > 10 µM (inactive) |
| Cc1ccc(N2Cc3c(ccc4ccccc34)OP2(=O)Oc2ccc(Cl)c(C)c2)cc1 (stereo not given) | 81.5 µM (inactive) |  | > 100 µM (inactive) | > 100 µM (inactive) | > 100 µM (inactive) | > 100 µM (inactive) | > 100 µM (inactive) | > 84.3 µM (inactive) | > 81.8 µM (inactive) | 10 µM (inactive) | > 95.1 µM (inactive) | > 100 µM (inactive) | > 100 µM (inactive) | 18.4 µM (inactive) | > 100 µM (inactive) | > 93.3 µM (inactive) | > 100 µM (inactive) |  | > 100 µM (inactive) | 39.9 µM (inactive) |
| CCCOC1OC(CS(=O)(=O)O)C(O)C(O)C1O (stereo not given) | > 100 µM (inactive) | > 100 µM (inactive) | > 100 µM (inactive) | > 100 µM (inactive) | > 100 µM (inactive) | > 100 µM (inactive) | > 100 µM (inactive) | > 100 µM (inactive) | > 100 µM (inactive) | > 100 µM (inactive) | > 100 µM (inactive) | > 100 µM (inactive) | > 100 µM (inactive) | > 100 µM (inactive) | > 100 µM (inactive) | > 100 µM (inactive) | > 100 µM (inactive) | > 100 µM (inactive) | > 100 µM (inactive) |  |
